In BigSolDB 2.1:

Cc1[nH]c(=O)c(C#N)cc1-c1ccncc1
solubility (mole fraction)
Settings | 278.15 K | 283.15 K | 288.15 K | 293.15 K | 298.15 K | 303.15 K | 308.15 K | 313.15 K | 318.15 K | 323.15 K
in DMF | 7.95e-05 | 9.2e-05 | 0.000109 | 0.000129 | 0.000149 | 0.000173 | 0.000199 | 0.000225 | 0.000251 | 0.000285
in ethanol | 9.24e-06 | 1.13e-05 | 1.35e-05 | 1.58e-05 | 1.84e-05 | 2.13e-05 | 2.43e-05 | 2.74e-05 | 3.1e-05 | 3.5e-05
in ethylene glycol | 1.72e-05 | 2.09e-05 | 2.46e-05 | 2.89e-05 | 3.37e-05 | 3.89e-05 | 4.4e-05 | 5.03e-05 | 5.66e-05 | 6.44e-05
in isopropanol | 2.44e-05 | 2.89e-05 | 3.43e-05 | 4.03e-05 | 4.73e-05 | 5.4e-05 | 6.16e-05 | 7.07e-05 | 7.92e-05 | 9.02e-05
in water | 4.99e-07 | 5.98e-07 | 7.1e-07 | 8.34e-07 | 9.77e-07 | 1.12e-06 | 1.27e-06 | 1.44e-06 | 1.64e-06 | 1.85e-06
